Experimental data reported in US7589078B2, “Anti-viral nucleoside analogs and methods for treating viral infections, especially HIV infections” (Yale University, priority 2003, dated 2009).
Where two headings read alike, the source gives them in different places.

Assays:
CEM cells = assay: Cellular toxicity in CEM cells (cell counts); settings: for IC50: read-out: Cellular ID50
Description: The basic procedures are similar. The cells are seeded a low concentration, then serial dilutions of test compound are added. […] After 48 to 96 h incubation at 37° C. in a 5% CO2 humidified incubator the assay is ended. The drug treated samples are compared to the untreated controls. This is accomplished in suspension cell lines by counting cell numbers either with a hemocytometer or by using a Coulter Counter.
The numbers in parentheses represent the mean and standard deviations of percentage of untreated CEM control cells at the concentration indicated.

[1] = system: mtDNA content of CEM cells; assay: Mitochondrial DNA content in CEM cells (Southern blot); type: cell-based; settings: for IC50: four days, read-out: Mitochondrial DNA Content ID50
Description: Mitochondrial DNA: The effect of nucleoside analogs on mtDNA content was assessed as described previously (2). […] Cells treated with drugs at various concentrations either as single agents or in combination were grown for four days. Cells were then harvested, treated with proteinase K and DNase free RNase. Extracts were applied to nylon membranes and hybridized with an mtDNA probe. After stripping the membrane the load was normalized by rehybridizing the membrane with an Alu probe. Blots were quantitated with a Molecular Dynamics personal densitometer SI with ImageQuaNT analysis software.

HIV-1 strain IIIB [2] = assay: Antiviral activity in MT-2 cells infected with HIV-1 strain IIIB (MTT); type: cell-based
Description: Determination of antiviral activity: Compounds were tested in MT-2 cells infected with HIV-1 strain IIIB essentially as described previously (31). […]. Calculations of the percent protection and isobologram combination studies are described (12).

H-9 cells = assay: Toxicity in H-9 cells alone and in combination (Coulter Counter); type: cell-based; settings: H-9 cells, 48 h
Text: (§1) The basic procedures are similar.

MT-2 cells = assay: Cellular toxicity, MT-2 cell growth; type: cell-based; settings: MT-2 cells; read-out: ID50: concentration required to inhibit MT-2 cell growth by 50%
Text: as §1

thymidine kinase (TK-1) [3] = target: T1, thymidine kinase (TK-1) (Homo sapiens, UniProt P04183); assay: Monophosphorylation of analogs by thymidine kinase; type: biochemical; set-up: phosphorylated by thymidine kinase (TK-1) from CEM cells; endogenous in cells; settings: for Relative Vmax: 250 μM dThd or analog, 2.4 mM ATP, 0.07 unit TK-1, 37° C., 285 min, dThd = 100
T1 sequence (P04183 1-234): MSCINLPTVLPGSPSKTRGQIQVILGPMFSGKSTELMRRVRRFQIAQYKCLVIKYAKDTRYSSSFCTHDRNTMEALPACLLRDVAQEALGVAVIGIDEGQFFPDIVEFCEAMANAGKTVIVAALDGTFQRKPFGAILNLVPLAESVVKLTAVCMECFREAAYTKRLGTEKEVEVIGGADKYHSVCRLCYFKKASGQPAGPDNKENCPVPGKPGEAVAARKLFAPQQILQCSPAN
Description: Monophosphorylation of Analogs by Thymidine Kinase: All the analogs were tested for their ability to be phosphorylated by thymidine kinase (TK-1) from CEM cells. This enzyme was purified by an affinity column technique developed in this laboratory (7). […] At the end of the incubation time the reaction was stopped by the addition of 3 parts cold HPLC grade methanol. After incubating on ice for at least 10 min. the methanol insoluble material is precipitated by centrifugation and the methanol soluble supernatants were placed into clean microfuge tubes. These samples were brought to dryness in a Speedvac Centrifuge. The samples were dissolved in water and separated on a Shimatzu HPLC model SCL 10Avp using a gradient of water to 300 mM potassium phosphate and a Whatman 10/25 particle SAX column. Km and relative Vmax studies were done in a similar fashion, using the same mixture and different amounts of substrate and enzyme.

thymidine kinase (TK-1) [4] = target: T1, thymidine kinase (TK-1); assay: Thymidine kinase assay with added nucleoside ([14C]-dThd to dTMP); settings: [14C]-dThd 25 μM, added nucleoside 250 μM; compared to reactions with no additions
Description: After two additional washes in ethanol, the discs were dried and placed in scintillation vials that contained 5 ml SafeScint Scintillation Cocktail (American Bioanalytical, Natick, Mass.). The amount of radioactivity, which represents the amount of dTMP formed, was quantitated in a Beckman LS5000TD Scintillation Counter (Beckman Instruments Inc., Palo Alto, Calif.).

HIV-1 strain IIIB [5] = settings: MT-2 cells; EC50 reported previously (17); read-out: EC50: effective concentration required to achieve 50% protection from HIV in MT-2 cells; cited from earlier work
[6] = target: T2, thymidine phosphorylase (TP) (Homo sapiens, UniProt P19971); assay: Thymidine phosphorylase assay; type: in vitro ADME; settings: partially purified TP from human liver, 100 μM nucleoside, 37° C., FIG. 11
T2 construct: using a partially purified prepartion of human liver extract (28) as a source of the thymidine phosphorylase (TP); from tissue; host or cells: human liver extract, partially purified
T2 sequence (P19971 11-482): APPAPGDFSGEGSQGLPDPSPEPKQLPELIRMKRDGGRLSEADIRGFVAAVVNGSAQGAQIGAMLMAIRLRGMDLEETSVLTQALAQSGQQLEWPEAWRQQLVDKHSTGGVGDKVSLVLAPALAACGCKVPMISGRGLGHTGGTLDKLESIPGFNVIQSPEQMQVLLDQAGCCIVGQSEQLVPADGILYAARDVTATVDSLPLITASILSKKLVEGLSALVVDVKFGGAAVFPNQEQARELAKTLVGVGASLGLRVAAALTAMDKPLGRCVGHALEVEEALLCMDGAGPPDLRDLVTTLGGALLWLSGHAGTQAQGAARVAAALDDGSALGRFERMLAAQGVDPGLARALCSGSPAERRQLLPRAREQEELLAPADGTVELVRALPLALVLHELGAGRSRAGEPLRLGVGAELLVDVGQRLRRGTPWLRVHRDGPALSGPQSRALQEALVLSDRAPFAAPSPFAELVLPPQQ
Description: Thymidine Phosphorylase Assays: Nucleoside analogs (100 μM) were incubated in 75 mM potassium phosphate buffer pH 7.3 at 37° C. using a partially purified prepartion of human liver extract (28) as a source of the thymidine phosphorylase (TP). After incubation, the reaction was stopped by the addition of trichloroacetic acid to a final concentration of 15%. The samples were then incubated on ice. After the acid insoluble components were removed by centrifugation, the supernatant was neutralized by two extractions with one half volume of trioctylamine/freon (45:55). The aqueous supernatants were examined by HPLC using the Beckman ODS column method, as described in Acid Stability Studies.

[7] = Human immunodeficiency virus 1, MT2, MT-2/HIV IIIB system, FIG. 10, read-out: EC50 for single agents (isobologram study)
[8] = CEM cells, four day cell growth, cell counts vs untreated controls
[9] = MT-2 cells, HIV-1 IIIB, read-out: EC50: effective concentration required to achieve 50% protection from HIV in MT-2 cells

EC50 (HIV-1 strain IIIB [2]; [9]) [µM]	Relative Vmax (thymidine kinase (TK-1) [3])	Percent of Activity (thymidine kinase (TK-1) [4]) [%]	SMILES	IC50 (CEM cells; [8]) [µM]	IC50 (MT-2 cells) [µM]	Cell count, percentage of untreated CEM control cells (CEM cells; CEM cells, at 100 μM) [%]	also measured
			Nc1ccn([C@@H]2CS[C@H](CO)O2)c(=O)n1 [3TC, β-L-2′,3′-dideoxy-3′-thiacytidine, reference compound]				Cell count, percentage of untreated CEM control cells (CEM cells; CEM cells, at 200 μM): 77 ± 28%; IC50 (CEM cells; Homo sapiens, CCRF-CEM, 96 h): > 200 µM; IC50 ([1]; Homo sapiens, CCRF-CEM, 96 h): > 200 µM; Mitochondrial DNA content, percentage of untreated CEM control cells ([1]; at 200 μM): 114 ± 2%; EC50 (HIV-1 strain IIIB [2]; [7]): 1 µM; Percent of Untreated Controls (H-9 cells; 5 μM 3TC alone): 99 ± 3%; Percent of Untreated Controls (H-9 cells; 20 μM 3TC alone): 94 ± 3%; Percent of Untreated Controls (H-9 cells; 100 μM 3TC alone): 108 ± 12%
> 100	0.4 ± 0.2	110.8 ± 9.0	C=CC[C@@]1(CO)C=C[C@H](n2cc(C)c(=O)[nH]c2=O)O1 [4′-allyl D4T]	> 100	> 100		
> 100	3.9 ± 1.0	53.2 ± 9.2	Cc1cn([C@H]2C=C[C@@](C#CCl)(CO)O2)c(=O)[nH]c1=O [4′-ethynylchloro D4T]	62.6 ± 10	63.3 ± 20.8		
	1.6 ± 0.5	103.8 ± 9.9	Cc1cn([C@H]2C=C[C@@](C)(CO)O2)c(=O)[nH]c1=O [4′-methyl D4T]	> 100	> 100	114 ± 2	EC50 (HIV-1 strain IIIB [5]): > 100 µM; Rate of conversion to the monophosphate form (thymidine kinase (TK-1) [3]; purified human TK-1): approximately 2% of dThd
	1.8 ± 0.5	99.5 ± 6.9	C=C[C@@]1(CO)C=C[C@H](n2cc(C)c(=O)[nH]c2=O)O1 [4′-vinyl D4T]	> 100	> 100	78 ± 21	EC50 (HIV-1 strain IIIB [5]): > 100 µM; Rate of conversion to the monophosphate form (thymidine kinase (TK-1) [3]; purified human TK-1): approximately 2% of dThd
	55.5 ± 9.7	5.4 ± 2.3	Cc1cn([C@H]2C[C@H](N=[N+]=[N-])[C@@H](CO)O2)c(=O)[nH]c1=O [AZT, 3′-Azido-3′-deoxythymidine, reference compound]				Rate of phosphorylation by TK-1, in words (thymidine kinase (TK-1) [3]; purified human TK-1): half as fast as dThd
			Nc1nc(=O)n([C@@H]2C=C[C@H](CO)O2)cc1F [LFd4C, β-L-2′,3′-dideoxy-2′,3′-didehydro-5-fluorocytidine, reference compound]				EC50 (HIV-1 strain IIIB [2]; [7]): 0.18 µM; Percent of Untreated Controls (H-9 cells; 5 μM LFd4C alone): 73 ± 9%; Percent of Untreated Controls (H-9 cells; 10 μM LFd4C alone): 56 ± 4%
			Cc1cn([C@H]2C[C@H](O)[C@@H](CO)O2)c(=O)[nH]c1=O [dThd]				Break down by thymidine phosphorylase [6]: broke down very quickly
			Nc1ccn([C@H]2CC[C@@H](CO)O2)c(=O)n1 [ddC, 2′,3′-dideoxycytidine, reference compound]				IC50 (CEM cells; Homo sapiens, CCRF-CEM, 96 h): 5.5 ± 1.8 µM; IC50 ([1]; Homo sapiens, CCRF-CEM, 96 h): 0.15 ± 0.12 µM

SMILES	EC50 (HIV-1 strain IIIB [2]; [9]) [µM]	Relative Vmax (thymidine kinase (TK-1) [3])	Percent of Activity (thymidine kinase (TK-1) [4]) [%]	IC50 (CEM cells; [8]) [µM]	IC50 (MT-2 cells) [µM]	Cell count, percentage of untreated CEM control cells (CEM cells; CEM cells, at 100 μM) [%]	also measured
Cc1cn([C@H]2C=C[C@@](C#N)(CO)O2)c(=O)[nH]c1=O [4′-cyano D4T]	7 ± 2.6	1.1 ± 0.2	71.8 ± 8.2	> 100	> 100	60 ± 1	Mitochondrial DNA content, percentage of untreated CEM control cells ([1]; at 100 μM): 264 ± 23%; IC50 [1]: > 100 µM; Anti-HIV activity compared with D4T (HIV-1 strain IIIB [2]; MT-2/IIIB anti HIV-1 system, FIG. 8): less active than D4T
